Patent US11186578B2, “Substituted pyrrolo[3,2-d]pyrimidines and pyrazolo[4,3-d]pyrimidines as tyrosine kinase inhibitors” (Shenzhen TargetRx, Inc., priority 2016, dated 2021)

Columns and labels:
[1] = tested on: RAMOS; assay: RAMOS IC50; assay type: cell-based; settings: Homo sapiens
[2] = Metabolic stability in human liver microsomes; assay type: in vitro ADME; settings: pH 7.4, 1 μM compound, 0.5 mg/mL protein
Method: (§1) (2) Metabolic Stability Evaluation Experiments in Microsome:
(§2) 2) Preparation of phosphate buffer (100 mM, pH 7.4): 150 mL of pre-formulated 0.5 M potassium dihydrogen phosphate was taken and mixed with 700 mL of 0.5 M dipotassium hydrogen phosphate solution, and the pH of the mixture was adjusted to 7.4 with 0.5 M dipotassium hydrogen phosphate solution. Before use it was diluted by 5 times with ultrapure water, and magnesium chloride was added to obtain the phosphate buffer (100 mM), which contains 100 mM potassium phosphate, 3.3 mM magnesium chloride, and a pH of 7.4. […] 4) Preparation of stop solution: The stop solution was an acetonitrile solution containing 50 ng/mL propranolol hydrochloride and 200 ng/mL tolbutamide (internal standard). […] 6) Incubation of the sample: The stock solutions of the corresponding compounds were diluted to 0.25 mM with an aqueous solution containing 70% acetonitrile, which is used as a working solution and is ready for use. 398 μL of human liver microsomes dilution or rat liver microsome dilution was added to 96-well incubation plates (N=2), and 2 μL of 0.25 mM working solutions were added respectively, and evenly mixed. 7) Determination of metabolic stability: 300 μL of pre-cooled stop solution was added to each well of a 96-well deep well plate, which was placed on ice as a stop plate. The 96-well incubation plate and the NADPH regeneration system were placed in a 37° C. water bath, shaken at 100 rpm, and pre-incubated for 5 min. 80 μL of the incubation solution was taken from each well of the incubation plate, added to the stop plate, evenly mixed, and 20 μL of the NADPH regeneration system solution was added as 0 minute sample. Then, 80 μL of the NADPH regeneration system solution was added to each well of the incubation plate to start the reaction and start timing. […] 100 μL of the reaction solutions were taken at 10, 30, and 90 min, respectively, added to the stop place, and the reaction was terminated by vortexing for 3 min. The plate was centrifuged at 5000×g for 10 min at 4° C. 100 μL of the supernatant was taken and added into a 96-well plate to which 100 μL of distilled water was previously added, evenly mixed, and samples were analyzed by LC-MS/MS. 8) Data analysis: The peak area of the corresponding compounds and the internal standard was detected by LC-MS/MS system, and the ratio of the peak area of the compounds to the internal standard was calculated.

[3] = molecular target: BTK (Homo sapiens (Human), UniProt Q06187); assay: Kinase inhibition test (HTRF); assay type: biochemical; settings: 1 nM BTK, 20 μM ATP
Sequence of BTK (Q06187 whole entry): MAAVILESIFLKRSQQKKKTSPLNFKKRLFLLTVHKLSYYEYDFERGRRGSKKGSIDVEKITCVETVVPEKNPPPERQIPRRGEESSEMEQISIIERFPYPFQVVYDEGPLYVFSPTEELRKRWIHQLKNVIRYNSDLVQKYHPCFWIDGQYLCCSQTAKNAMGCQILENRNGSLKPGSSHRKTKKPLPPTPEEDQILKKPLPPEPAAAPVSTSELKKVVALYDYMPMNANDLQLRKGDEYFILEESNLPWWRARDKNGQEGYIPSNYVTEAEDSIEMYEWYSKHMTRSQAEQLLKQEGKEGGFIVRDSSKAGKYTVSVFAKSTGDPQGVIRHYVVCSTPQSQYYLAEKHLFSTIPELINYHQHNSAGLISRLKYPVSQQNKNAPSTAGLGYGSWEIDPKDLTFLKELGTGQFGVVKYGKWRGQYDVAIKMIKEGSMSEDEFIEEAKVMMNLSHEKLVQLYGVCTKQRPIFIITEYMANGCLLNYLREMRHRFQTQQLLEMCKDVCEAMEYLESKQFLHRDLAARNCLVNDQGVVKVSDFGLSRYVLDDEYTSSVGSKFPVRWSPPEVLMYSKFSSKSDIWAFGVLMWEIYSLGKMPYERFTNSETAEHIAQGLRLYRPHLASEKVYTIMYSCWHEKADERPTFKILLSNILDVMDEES
Method: (1) Kinase Inhibition Test
1) Compound dilution: The test compounds were dissolved in DMSO to make a 10 mM stock solution. […] 2) Kinase assay: in a 10 μL reaction system (containing buffer 50 mM Hepes (pH 7.5), 5 mM MgCl2, 0.01 mM Na3VO4, 1% BSA) in a 384-well plate, 1 nM BTK, 1 μM biotin-TK peptide (from HTRF-TK kit) and 20 μM ATP were incubated at 23° C. for 90 minutes.

[4] = Metabolic stability in rat liver microsomes; assay type: in vitro ADME, SD rat; settings: Sprague-Dawley, pH 7.4, 1 μM compound, 0.5 mg/mL protein
Method: as §1, §2

[5] = in vivo; settings: male, Sprague-Dawley, rat
[6] = male, Sprague-Dawley, rat, in vivo
[7] = Pharmacokinetic experiments in rats; settings: male, Sprague-Dawley, rat, in vivo

IC50 [1] [nM]	half-life at 1 μM [2] [min]	microsomal CLint at 1 μM [2] [µL/min/mg]	IC50 [3] [nM]	half-life at 1 μM [4] [min]	microsomal CLint at 1 μM [4] [µL/min/mg]	Compound	AUC(0-t) ([5]; iv, 0.5 mg/kg) [ng·h/mL]	Cmax ([5]; iv, 0.5 mg/kg) [ng/mL]	Tmax ([5]; iv, 0.5 mg/kg) [min]	AUC(0-t) ([5]; po, 10 mg/kg) [ng·h/mL]	Cmax ([5]; po, 10 mg/kg) [ng/mL]	Tmax ([5]; po, 10 mg/kg) [min]	F [6] [%]	AUC(0-t) ([7]; iv, 0.5 mg/kg) [ng·h/mL]	Cmax ([7]; iv, 0.5 mg/kg) [ng/mL]	Tmax ([7]; iv, 0.5 mg/kg) [min]	AUC(0-t) ([7]; po, 10 mg/kg) [ng·h/mL]	Cmax ([7]; po, 10 mg/kg) [ng/mL]	Tmax ([7]; po, 10 mg/kg) [min]
< 100	1.3	1100	< 1			C=CC(=O)N1CCC[C@@H](c2cn(-c3ccc(Oc4ccccc4)cc3)c3c(N)ncnc23)C1 [Example 3, (S)-1-(3-(4-amino-5-(4-phenoxyphenyl)-5H-pyrrolo[3,2-d]pyrimidin-7-yl)piperidin-1-yl)prop-2-en-1-one]													
< 100	3.5	399	< 1	2.9	483	C=CC(=O)N1CCC[C@H](c2cn(-c3ccc(Oc4ccccc4)cc3)c3c(N)ncnc23)C1 [Example 4, (R)-1-(3-(4-amino-5-(4-phenoxyphenyl)-5H-pyrrolo[3,2-d]pyrimidin-7-yl)piperidin-1-yl)prop-2-en-1-one]													
< 100	1.5	922	< 1			C=CC(=O)N1CCC[C@@H](c2nn(-c3ccc(Oc4ccccc4)cc3)c3c(N)ncnc23)C1 [Example 5, (R)-1-(3-(7-amino-1-(4-phenoxyphenyl)-1H-pyrazolo[4,3-d]pyrimidin-3-yl)piperidin-1-yl)prop-2-en-1-one]													
< 100	12.5	111	< 1	4.1	338	C=CC(=O)N1CCC[C@H](c2nn(-c3ccc(Oc4ccccc4)cc3)c3c(N)ncnc23)C1 [Example 6, (S)-1-(3-(7-amino-1-(4-phenoxyphenyl)-1H-pyrazolo[4,3-d]pyrimidin-3-yl)piperidin-1-yl)prop-2-en-1-one]													

Compound	IC50 [1] [nM]	half-life at 1 μM [2] [min]	microsomal CLint at 1 μM [2] [µL/min/mg]	IC50 [3] [nM]	half-life at 1 μM [4] [min]	microsomal CLint at 1 μM [4] [µL/min/mg]	AUC(0-t) ([5]; iv, 0.5 mg/kg) [ng·h/mL]	Cmax ([5]; iv, 0.5 mg/kg) [ng/mL]	Tmax ([5]; iv, 0.5 mg/kg) [min]	AUC(0-t) ([5]; po, 10 mg/kg) [ng·h/mL]	Cmax ([5]; po, 10 mg/kg) [ng/mL]	Tmax ([5]; po, 10 mg/kg) [min]	F [6] [%]	AUC(0-t) ([7]; iv, 0.5 mg/kg) [ng·h/mL]	Cmax ([7]; iv, 0.5 mg/kg) [ng/mL]	Tmax ([7]; iv, 0.5 mg/kg) [min]	AUC(0-t) ([7]; po, 10 mg/kg) [ng·h/mL]	Cmax ([7]; po, 10 mg/kg) [ng/mL]	Tmax ([7]; po, 10 mg/kg) [min]
C=CC(=O)N1CCC[C@@H](c2nc(-c3ccc(Oc4ccccc4)cc3)c3c(N)nccn23)C1 [Example 7, (R)-1-(3-(8-amino-1-(4-phenoxyphenyl)imidazo[1,5-a]pyrazin-3-yl)piperidin-1-yl)prop-2-en-1-one]	< 100	5.7	243	< 1	2.4	576	401	966	4.8	931	365	40.2	23.20						
C=CC(=O)N1CCC[C@@H](n2nc(-c3ccc(Oc4ccccc4)cc3)c3c(N)ncnc32)C1 [Ibrutinib]	< 100													437	1230	4.8	727	250	30
